28 molecules from US12590096B2, “Imidazo[2,1-f][1,2,4]triazin-4-amine as TLR8 agonists” (BeOne Medicines | GmbH, priority 2019, dated 2026) can be followed below.

SMILES strings stand for the structures.

In this experiment the target is T1, human TLR 8 protein in HEK-blue hTLR 8 tool cell line (Homo sapiens, UniProt Q9NR97).
T1 construct: expressed in transfected cells; host or cells: HEK293 (HEK-Blue hTLR8)
T1 sequence (Q9NR97 27-1041): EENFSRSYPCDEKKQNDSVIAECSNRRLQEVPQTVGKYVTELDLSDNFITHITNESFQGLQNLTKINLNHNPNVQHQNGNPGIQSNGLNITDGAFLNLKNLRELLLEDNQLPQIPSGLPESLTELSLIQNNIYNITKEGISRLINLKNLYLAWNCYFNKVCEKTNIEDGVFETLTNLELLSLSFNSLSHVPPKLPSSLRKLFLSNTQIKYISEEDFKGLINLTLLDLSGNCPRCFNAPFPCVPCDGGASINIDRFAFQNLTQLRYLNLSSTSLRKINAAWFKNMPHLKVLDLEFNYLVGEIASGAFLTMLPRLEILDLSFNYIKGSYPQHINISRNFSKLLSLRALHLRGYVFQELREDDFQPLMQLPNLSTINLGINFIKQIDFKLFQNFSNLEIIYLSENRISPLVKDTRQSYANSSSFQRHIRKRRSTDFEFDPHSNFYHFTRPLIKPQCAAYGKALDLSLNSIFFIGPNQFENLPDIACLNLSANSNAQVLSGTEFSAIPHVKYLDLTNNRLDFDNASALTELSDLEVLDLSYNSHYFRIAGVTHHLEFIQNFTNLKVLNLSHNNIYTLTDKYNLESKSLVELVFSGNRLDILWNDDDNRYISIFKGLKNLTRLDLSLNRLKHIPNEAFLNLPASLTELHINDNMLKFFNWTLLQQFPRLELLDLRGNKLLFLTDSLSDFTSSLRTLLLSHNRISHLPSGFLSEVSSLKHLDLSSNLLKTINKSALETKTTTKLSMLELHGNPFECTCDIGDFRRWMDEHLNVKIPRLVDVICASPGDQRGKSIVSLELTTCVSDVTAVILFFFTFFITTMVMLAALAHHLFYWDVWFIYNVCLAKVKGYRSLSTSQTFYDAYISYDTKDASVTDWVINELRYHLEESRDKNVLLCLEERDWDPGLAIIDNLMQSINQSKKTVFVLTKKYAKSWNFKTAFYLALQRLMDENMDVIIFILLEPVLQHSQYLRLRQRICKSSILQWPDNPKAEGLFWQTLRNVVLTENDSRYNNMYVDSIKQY
Nature of the experiment: TLR8 stimulation determined by HEK-Blue Detection (NF-κB/SEAP reporter). The experiment is classed as cell-based. The note with it: HEK-Blue hTLR8 cells, 16 h incubation, relative to maximum activation by Resiquimod or motolimod; read-out: EC50 (nmol). The source says:
TLR8 Stimulation Determined by HEK-Blue Detection
This assay was designed to study the stimulation of human TLR 8 protein in HEK-blue hTLR 8 tool cell line by monitoring the activation of NF-κB. HEK-blue hTLR8 cells were obtained by co-transfection of hTLR8 gene and optimized secretory embryonic alkaline phosphatase (SEAP) reporter gene into HEK293 cells. SEAP reporter gene was put under the control of […] minimal promoter fused with five NF-κB and AP-1-binding sites. NF-κB and AP-1 were activated by stimulation with TLR 8 ligand, thus inducing the expression of SEAP. The level of SEAP can be easily determined by HEK-Blue Detection (a cell culture medium that allows real-time detection of SEAP). HEK-Blue Detection comprises all nutrients needed for cell growth and specific SEAP color substrates. The hydrolysis of substrate by SEAP produces purple/blue color which can be measured by spectrophotometer.
When growing to 50-80% confluence, HEK-Blue hTLR7/8 cells were plated into 96-well plates (costar 3599) at a density of 40,000 cells/well. Then, the compound serially diluted at 10 points with a final concentration ranging from 1 nM to 10 μm in 0.1% DMSO/HEK-Blue Detection was added. The plates were then incubated in 5% CO2 at 37° C. for 16 h. Optical density at 620-655 nm was read on BMG PHERAstar FSX instrument. The EC50 of each compound was determined by calculating the maximum activation percentage identified using Resiquimod or motolimod.
The EC50 of the tested compound of the present invention is as follows.
With `CCC[C@H](C)Oc1nc(N)c2ncc(CC3CCN(CC(C)NC)CC3)n2n1` (single isomer, unassigned) [Compound B58, 7-((1-((R or S)-2-(methylamino)propyl)piperidin-4-yl)methyl)-2-(((S)-pent-2-yl)oxy)imidazo[2,1-f][1,2,4]triazin-4-amine], the EC50 (in general, the concentration needed to bring the measured effect to its halfway point) came out at 24 nM. The value for `CCC[C@H](C)Oc1nc(N)c2ncc(CC3CCN(CC(C)NC)CC3)n2n1` (single isomer, unassigned) [Compound B59, 7-((1-((S or R)-2-(methylamino)propyl)piperidin-4-yl)methyl)-2-(((S)-pent-2-yl)oxy)imidazo[2,1-f][1,2,4]triazin-4-amine] was 21 nM; that for `CCCCOc1nc(N)c2ncc(CC3CCNCC3)n2n1` [Compound B1, 2-butoxy-7-(piperidin-4-ylmethyl)imidazo[2,1-f][1,2,4]triazin-4-amine] was 51 nM; that for `CCCC(C)Oc1nc(N)c2ncc(CC3CCNCC3)n2n1` (stereo not shown) [Compound B2, 2-(pent-2-yloxy)-7-(piperidin-4-ylmethyl)imidazo[2,1-f][1,2,4]triazin-4-amine] was 15 nM. Turning to `CCCCOc1nc(N)c2ncc(CCC3CCNCC3)n2n1` [Compound B3, 2-butoxy-7-(2-(piperidin-4-yl)ethyl)imidazo[2,1-f][1,2,4]triazin-4-amine], the EC50 worked out at 346 nM. The value for `CCCCNc1nc(N)c2ncc(CC3CCNCC3)n2n1` [Compound B4, N2-butyl-7-(piperidin-4-ylmethyl)imidazo[2,1-f][1,2,4]triazin-2,4-diamine] was 347 nM; that for `CCCC(C)Nc1nc(N)c2ncc(CC3CCNCC3)n2n1` (stereo not shown) [Compound B5, N2-(pent-2-yl)-7-(piperidin-4-ylmethyl)imidazo[2,1-f][1,2,4]triazin-2,4-diamine] was 917 nM; that for `CCCC(C)Oc1nc(N)c2ncc(CC3(C)CCNCC3)n2n1` (stereo not shown) [Compound B8, 7-((4-methylpiperidin-4-yl)methyl)-2-(pent-2-yloxy)imidazo[2,1-f][1,2,4]triazin-4-amine] was 515 nM. The value for `CCCC(C)Oc1nc(N)c2ncc(CN3CCNCC3)n2n1` (stereo not shown) [Compound B9, 2-(pent-2-yloxy)-7-(piperazin-1-ylmethyl)imidazo[2,1-f][1,2,4]triazin-4-amine] was 529 nM. The value for `CCC[C@H](C)Oc1nc(N)c2ncc(CC3CCCNC3)n2n1` (stereo partly drawn) [Compound B10, 2—(((S)-pent-2-yl)oxy)-7-(piperidin-3-ylmethyl)imidazo[2,1-f][1,2,4]triazin-4-amine] was 172 nM; that for `CCCCCc1nc(N)c2ncc(CC3CCNCC3)n2n1` [Compound B11, 2-pentyl-7-(piperidin-4-ylmethyl)imidazo[2,1-f][1,2,4]triazin-4-amine] was 1790 nM; that for `CCC[C@H](C)Oc1nc(N)c2ncc(CC3CCN(C4CCNC4)CC3)n2n1` (stereo partly drawn) [Compound B13, 2—(((S)-pent-2-yl)oxy)-7-((1-(pyrrolidin-3-yl)piperidin-4-yl)methyl)imidazo[2,1-f][1,2,4]triazin-4-amine] was 387 nM. Take `CCC[C@H](C)Oc1nc(N)c2ncc(CC3CCN(CC4CCNCC4)CC3)n2n1` [Compound B14, (S)-2-(pent-2-yloxy)-7-((1-(piperidin-4-ylmethyl)piperidin-4-yl)methyl)imidazo[2,1-f][1,2,4]triazin-4-amine]: the EC50 was found to be 138 nM. As for `CCCC(C)Oc1nc(N)c2ncc(CN3CCN[C@H](C)C3)n2n1` (stereo partly drawn) [Compound B15, 7—(((R)-3-methylpiperazin-1-yl)methyl)-2-(pent-2-yloxy)imidazo[2,1-f][1,2,4]triazin-4-amine], the concentration for a half-maximal effect (EC50) worked out at 1080 nM. The value for `CCCC(C)Oc1nc(N)c2ncc(CN3CCN[C@@H](C)C3)n2n1` (stereo partly drawn) [Compound B16, 7—(((S)-3-methylpiperazin-1-yl)methyl)-2-(pent-2-yloxy)imidazo[2,1-f][1,2,4]triazin-4-amine] was 8490 nM. Then `CCCC(C)Oc1nc(N)c2ncc(CN3CCNC[C@@H]3C)n2n1` (stereo partly drawn) [Compound B17, 7—(((S)-2-methylpiperazin-1-yl)methyl)-2-(pent-2-yloxy)imidazo[2,1-f][1,2,4]triazin-4-amine], with 3950 nM; and `CCCC(C)Oc1nc(N)c2ncc(CN3CCNC[C@H]3C)n2n1` (stereo partly drawn) [Compound B18, 7—(((R)-2-methylpiperazin-1-yl)methyl)-2-(pent-2-yloxy)imidazo[2,1-f][1,2,4]triazin-4-amine], with 2720 nM. For the molecule `CCC[C@H](C)Oc1nc(N)c2ncc(CC3CCN(CC4CCCN4)CC3)n2n1` (stereo partly drawn) [Compound B20, 2—(((S)-pent-2-yl)oxy)-7-((1-(pyrrolidin-2-ylmethyl)piperidin-4-yl)methyl)imidazo[2,1-f][1,2,4]triazin-4-amine], the EC50 is 558 nM.

For the molecule `CCCC(C)Oc1nc(N)c2ncc(CN3CCC(NC)CC3)n2n1` (stereo not shown) [Compound B21, 7-((4-(methylamino)piperidin-1-yl)methyl)-2-(pent-2-yloxy)imidazo[2,1-f][1,2,4]triazin-4-amine], the EC50 is greater than 10000 nM. Regarding `CCCC(C)Oc1nc(N)c2ncc(CN3CCC(CNC)CC3)n2n1` (stereo not shown) [Compound B22], the EC50 is greater than 10000 nM. The value for `CCC[C@H](C)Oc1nc(N)c2ncc(CC3CCN(C4CCNCC4)CC3)n2n1` [Compound B23, (S)-7-([1,4′-bipiperidin]-4-ylmethyl)-2-(pent-2-yloxy)imidazo[2,1-f][1,2,4]triazin-4-amine] was 143 nM.

For `CCCC(C)Oc1nc(N)c2ncc(C3(O)CC4(CCNCC4)C3)n2n1` (stereo not shown) [Compound B24, 2-(4-amino-2-(pent-2-yloxy)imidazo[2,1-f][1,2,4]triazin-7-yl)-7-azaspiro[3.5]nona-2-ol], the EC50 is greater than 10000 nM.

For the molecule `CCC[C@H](C)Oc1nc(N)c2ncc(CC3CCNC3)n2n1` (stereo partly drawn) [Compound B26, 2—(((S)-pent-2-yl)oxy)-7-(pyrrolidin-3-ylmethyl)imidazo[2,1-f][1,2,4]triazin-4-amine], the EC50 worked out at 99 nM. As for `CCCC(CCO)Oc1nc(N)c2ncc(CC3CCNCC3)n2n1` (stereo not shown) [Compound B28, 3-((4-amino-7-(piperidin-4-ylmethyl)imidazo[2,1-f][1,2,4]triazin-2-yl)oxy)hexan-1-ol], the EC50 is 308 nM. The value for `CCCC(C)Oc1nc(N)c2ncc(CC3CCCCC3)n2n1` (stereo not shown) [Compound B29, 7-(cyclohexylmethyl)-2-(pent-2-yloxy)imidazo[2,1-f][1,2,4]triazin-4-amine] was greater than 10000 nM.

As to `CCC[C@H](C)Oc1nc(N)c2ncc(CC3CCC(NC)CC3)n2n1` (stereo partly drawn) [Compound B31, (S)-7-((4-(methylamino)cyclohexyl)methyl)-2-(pent-2-yloxy)imidazo[2,1-f][1,2,4]triazin-4-amine], the EC50 is 103 nM. The value for `CCC[C@H](C)Oc1nc(N)c2ncc(CC3CCN(C)CC3)n2n1` [Compound B32, (S)-7-((1-methylpiperidin-4-yl)methyl)-2-(pent-2-yloxy)imidazo[2,1-f][1,2,4]triazin-4-amine] was 22 nM; that for `CCC[C@H](C)Oc1nc(N)c2ncc(C[C@H]3[C@@H]4CNC[C@@H]43)n2n1` [Compound B33, 7-(((1R,5S,6s)-3-azabicyclo[3.1.0]hex-6-yl)methyl)-2-(((S)-pent-2-yl)oxy)imidazo[2,1-f][1,2,4]triazin-4-amine] was 766 nM.
